In ChEMBL document CHEMBL5046284, “Structure-Based Design of a Chemical Probe Set for the 5-HT5A Serotonin Receptor” (J Med Chem, 2022):
Active and inactive are the calls of the source.

Assays:
[1] = molecular target: T1, 5-hydroxytryptamine receptor 5A (Homo sapiens, UniProt P47898); test: Agonist activity at human 5-HT5A receptor transfected in HTLA cells assessed as increase in beta-arrestin 2 recruitment at 10 uM incubated for 18 to 20 hrs by bright-Glo reagent based Tango assay; assay type: functional, cell-based
T1 sequence (P47898 whole entry): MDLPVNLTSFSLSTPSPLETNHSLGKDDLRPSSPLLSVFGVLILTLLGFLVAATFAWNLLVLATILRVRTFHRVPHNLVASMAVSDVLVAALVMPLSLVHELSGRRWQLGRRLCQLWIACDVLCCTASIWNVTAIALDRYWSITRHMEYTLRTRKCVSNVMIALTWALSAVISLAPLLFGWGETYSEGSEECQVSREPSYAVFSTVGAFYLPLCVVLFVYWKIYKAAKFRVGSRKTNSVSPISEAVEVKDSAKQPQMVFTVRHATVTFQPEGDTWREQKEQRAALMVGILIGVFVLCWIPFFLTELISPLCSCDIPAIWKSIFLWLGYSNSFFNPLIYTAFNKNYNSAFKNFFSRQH

[2] = molecular target: T1, 5-hydroxytryptamine receptor 5A; test: Agonist activity at human 5-HT5A receptor transfected in HTLA cells assessed as increase in beta-arrestin 2 recruitment by measuring maximal efficacy at 10 uM incubated for 18 to 20 hrs by bright-Glo reagent based Tango assay relative to control; assay type: functional, cell-based; conditions: time 18-20 hrs
Mus musculus [3] = test: Antiallodynic activity in IT dosed […] mouse model of spared nerve injury-induced neuropathic pain assessed as increase in paw withdrawal mechanical threshold measured after 30 mins by von Frey test; assay type: functional, organism-based
[4] = molecular target: T1, 5-hydroxytryptamine receptor 5A; test: Displacement of [3H]-5-CT from human 5-HT5A receptor incubated for 2 hr by radioligand binding assay
[5] = molecular target: 5-hydroxytryptamine receptor 2B (Homo sapiens, UniProt P41595); test: Binding affinity to 5-HT2BR (unknown origin) assessed as inhibition constant
5-hydroxytryptamine receptor 2B, sequence (P41595 whole entry): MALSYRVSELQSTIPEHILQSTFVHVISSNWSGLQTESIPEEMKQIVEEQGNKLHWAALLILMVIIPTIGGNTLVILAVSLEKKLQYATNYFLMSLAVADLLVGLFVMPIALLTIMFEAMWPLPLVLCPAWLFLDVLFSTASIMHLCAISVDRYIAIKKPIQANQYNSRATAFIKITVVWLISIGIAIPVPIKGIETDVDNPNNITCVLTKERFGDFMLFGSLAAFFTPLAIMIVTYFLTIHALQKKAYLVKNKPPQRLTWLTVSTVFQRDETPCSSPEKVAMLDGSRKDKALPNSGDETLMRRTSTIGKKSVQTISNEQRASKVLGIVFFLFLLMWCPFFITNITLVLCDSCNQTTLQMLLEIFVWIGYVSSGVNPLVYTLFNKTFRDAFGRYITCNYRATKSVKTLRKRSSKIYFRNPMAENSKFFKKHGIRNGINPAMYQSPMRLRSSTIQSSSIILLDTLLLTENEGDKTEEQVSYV

Mus musculus [6] = test: Effect on baseline mechanical thresholds in IT dosed […] mouse measured after 30 mins by von Frey test; assay type: functional, organism-based
[7] = molecular target: D(2) dopamine receptor (Homo sapiens) (UniProt P14416); test: Agonist activity at DRD2 (unknown origin) transfected in HTLA cells assessed as beta-arrestin 2 recruitment at 10 uM incubated for 18 to 20 hrs by luciferin based Tango assay; assay type: functional, cell-based; conditions: filed as agonist, time 18-20 hrs
D(2) dopamine receptor (Homo sapiens), sequence (P14416 whole entry): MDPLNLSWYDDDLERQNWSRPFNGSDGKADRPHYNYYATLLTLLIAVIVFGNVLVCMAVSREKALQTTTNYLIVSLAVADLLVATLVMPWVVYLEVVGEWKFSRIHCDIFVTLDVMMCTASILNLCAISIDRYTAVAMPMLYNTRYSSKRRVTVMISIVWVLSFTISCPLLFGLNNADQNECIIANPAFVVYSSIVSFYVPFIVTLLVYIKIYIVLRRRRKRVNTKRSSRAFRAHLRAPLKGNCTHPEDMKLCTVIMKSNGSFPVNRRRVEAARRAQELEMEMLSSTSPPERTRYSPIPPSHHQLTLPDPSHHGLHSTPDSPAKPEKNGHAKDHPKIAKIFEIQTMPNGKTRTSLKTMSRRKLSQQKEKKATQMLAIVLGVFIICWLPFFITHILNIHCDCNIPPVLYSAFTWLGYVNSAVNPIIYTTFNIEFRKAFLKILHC

[8] = molecular target: T2, 5-hydroxytryptamine receptor 2C (Homo sapiens) (UniProt P28335); test: Agonist activity at 5-HT2CR (unknown origin) transfected in HTLA cells assessed as beta-arrestin 2 recruitment at 10 uM incubated for 18 to 20 hrs by luciferin based Tango assay; assay type: functional, cell-based; conditions: filed as agonist, time 18-20 hrs
T2 sequence (whole entry): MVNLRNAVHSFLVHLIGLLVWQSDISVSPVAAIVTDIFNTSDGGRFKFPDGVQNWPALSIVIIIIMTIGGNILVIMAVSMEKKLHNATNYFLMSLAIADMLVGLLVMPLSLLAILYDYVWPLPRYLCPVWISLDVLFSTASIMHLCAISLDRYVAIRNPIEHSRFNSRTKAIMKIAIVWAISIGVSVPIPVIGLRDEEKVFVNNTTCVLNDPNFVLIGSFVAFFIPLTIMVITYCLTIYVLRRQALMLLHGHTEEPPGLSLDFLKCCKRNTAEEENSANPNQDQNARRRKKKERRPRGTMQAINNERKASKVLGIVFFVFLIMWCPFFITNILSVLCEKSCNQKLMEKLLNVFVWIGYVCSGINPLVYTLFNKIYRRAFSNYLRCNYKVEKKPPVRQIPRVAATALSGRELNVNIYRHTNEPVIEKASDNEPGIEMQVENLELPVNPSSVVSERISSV

Mus musculus [9] = test: Sedative activity in IT dosed […] mouse assessed as effect on locomotor activity measured after 60 mins by rotarod test; assay type: toxicity, organism-based; conditions: in vivo, icv_or_intrathecal, 1 h
[10] = molecular target: T3, 5-hydroxytryptamine receptor 1A (Homo sapiens) (UniProt P08908); test: (§1) Binding affinity to 5-HT1AR (unknown origin) assessed as inhibition constant
T3 sequence (whole entry): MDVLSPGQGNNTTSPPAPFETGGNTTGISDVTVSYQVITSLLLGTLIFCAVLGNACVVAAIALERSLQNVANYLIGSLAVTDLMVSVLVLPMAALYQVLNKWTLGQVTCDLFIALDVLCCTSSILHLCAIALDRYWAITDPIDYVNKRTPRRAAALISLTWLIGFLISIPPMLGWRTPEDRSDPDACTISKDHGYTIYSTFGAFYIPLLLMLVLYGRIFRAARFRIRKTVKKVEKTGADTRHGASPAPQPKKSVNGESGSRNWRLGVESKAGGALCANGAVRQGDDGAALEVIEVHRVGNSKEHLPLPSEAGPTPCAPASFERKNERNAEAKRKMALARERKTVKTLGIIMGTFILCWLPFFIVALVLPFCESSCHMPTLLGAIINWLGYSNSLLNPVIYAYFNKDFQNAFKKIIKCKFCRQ

Homo sapiens = species: Homo sapiens; test: Binding affinity to human 5-HT5A receptor W117A mutant ssessed as fold reduction in binding by competition binding assay relative to control; conditions: filed as agonist
[11] = molecular target: 5-hydroxytryptamine receptor 7 (Homo sapiens) (UniProt P34969); test: Binding affinity to 5-HT7AR (unknown origin)
5-hydroxytryptamine receptor 7 (Homo sapiens), sequence (P34969 whole entry): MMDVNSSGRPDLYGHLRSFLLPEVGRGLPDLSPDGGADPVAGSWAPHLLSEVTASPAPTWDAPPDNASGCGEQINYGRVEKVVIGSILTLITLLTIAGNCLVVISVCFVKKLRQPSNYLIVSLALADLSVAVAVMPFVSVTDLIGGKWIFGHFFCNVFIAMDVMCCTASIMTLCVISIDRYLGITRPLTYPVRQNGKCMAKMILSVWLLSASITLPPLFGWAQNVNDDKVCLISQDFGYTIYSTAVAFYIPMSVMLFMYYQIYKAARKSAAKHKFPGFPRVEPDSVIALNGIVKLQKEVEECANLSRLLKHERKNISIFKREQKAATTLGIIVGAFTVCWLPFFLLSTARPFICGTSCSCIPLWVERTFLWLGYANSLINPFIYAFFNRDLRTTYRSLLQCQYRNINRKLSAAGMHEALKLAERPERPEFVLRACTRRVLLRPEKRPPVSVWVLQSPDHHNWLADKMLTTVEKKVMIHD

[12] = molecular target: T1, 5-hydroxytryptamine receptor 5A; test: Displacement of [3H]-5-CT from human 5-HT5A receptor at 100 uM incubated for 2 hr by radioligand binding assay
[13] = molecular target: T1, 5-hydroxytryptamine receptor 5A; test: Antagonist activity at human 5-HT5AR assessed as […] of [35S]GTPgammaS binding at 100 uM incubated for 3 to 5 hrs; assay type: functional; conditions: filed as antagonist, time 3-5 hrs
[14] = molecular target: T1, 5-hydroxytryptamine receptor 5A; test: Displacement of [3H]-5-CT from human 5-HT5A receptor at 1 uM incubated for 2 hr by radioligand binding assay
[15] = molecular target: T1, 5-hydroxytryptamine receptor 5A; test: Displacement of [3H]-5-CT from human 5-HT5A receptor at 32 uM incubated for 2 hr by radioligand binding assay
[16] = molecular target: 5-hydroxytryptamine receptor 1D (Homo sapiens, UniProt P28221); test: Binding affinity to 5-HT1DR (unknown origin) assessed as inhibition constant
5-hydroxytryptamine receptor 1D, sequence (P28221 whole entry): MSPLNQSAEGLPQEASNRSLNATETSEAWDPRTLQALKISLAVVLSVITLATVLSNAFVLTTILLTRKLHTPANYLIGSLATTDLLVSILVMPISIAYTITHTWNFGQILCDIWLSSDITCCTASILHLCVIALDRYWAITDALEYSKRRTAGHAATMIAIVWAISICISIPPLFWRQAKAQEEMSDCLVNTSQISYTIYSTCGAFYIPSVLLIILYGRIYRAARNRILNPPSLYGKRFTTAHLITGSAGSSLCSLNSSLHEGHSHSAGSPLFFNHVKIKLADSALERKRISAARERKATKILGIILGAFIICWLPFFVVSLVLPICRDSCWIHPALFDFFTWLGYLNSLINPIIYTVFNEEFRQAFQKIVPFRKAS

[17] = molecular target: Melatonin receptor type 1A (Homo sapiens) (UniProt P48039); test: Agonist activity at MTNR1A (unknown origin) transfected in HTLA cells assessed as beta-arrestin 2 recruitment at 10 uM incubated for 18 to 20 hrs by luciferin based Tango assay; assay type: functional, cell-based; conditions: time 18-20 hrs
Melatonin receptor type 1A (Homo sapiens), sequence (P48039 whole entry): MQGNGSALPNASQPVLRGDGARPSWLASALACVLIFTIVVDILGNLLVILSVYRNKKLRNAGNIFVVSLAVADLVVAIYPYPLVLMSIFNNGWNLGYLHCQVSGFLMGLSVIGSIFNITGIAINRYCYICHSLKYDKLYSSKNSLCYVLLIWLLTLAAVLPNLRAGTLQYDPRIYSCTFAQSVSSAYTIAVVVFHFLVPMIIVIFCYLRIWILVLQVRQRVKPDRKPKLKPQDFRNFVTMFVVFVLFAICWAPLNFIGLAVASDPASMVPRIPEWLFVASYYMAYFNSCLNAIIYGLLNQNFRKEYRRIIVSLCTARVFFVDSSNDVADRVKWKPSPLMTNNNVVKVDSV

[18] = molecular target: 5-hydroxytryptamine receptor 1B (Homo sapiens, UniProt P28222); test: Binding affinity to 5-HT1BR (unknown origin) assessed as inhibition constant
5-hydroxytryptamine receptor 1B, sequence (P28222 whole entry): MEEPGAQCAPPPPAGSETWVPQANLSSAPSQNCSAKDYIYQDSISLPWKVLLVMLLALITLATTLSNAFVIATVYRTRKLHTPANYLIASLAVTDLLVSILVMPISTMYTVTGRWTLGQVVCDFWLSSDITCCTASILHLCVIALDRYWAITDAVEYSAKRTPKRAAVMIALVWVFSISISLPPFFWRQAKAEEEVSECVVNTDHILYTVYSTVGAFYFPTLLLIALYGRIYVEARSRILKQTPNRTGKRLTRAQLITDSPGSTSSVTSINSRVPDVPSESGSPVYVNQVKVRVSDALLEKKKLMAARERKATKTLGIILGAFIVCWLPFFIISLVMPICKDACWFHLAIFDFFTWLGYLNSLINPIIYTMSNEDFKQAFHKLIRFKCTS

[19] = molecular target: T2, 5-hydroxytryptamine receptor 2C (Homo sapiens); test: (§2) Binding affinity to 5-HT2CR (unknown origin) assessed as inhibition constant
[20] = molecular target: 5-hydroxytryptamine receptor 2A (Homo sapiens, UniProt P28223); test: Binding affinity to 5-HT2AR (unknown origin) assessed as inhibition constant
5-hydroxytryptamine receptor 2A, sequence (P28223 whole entry): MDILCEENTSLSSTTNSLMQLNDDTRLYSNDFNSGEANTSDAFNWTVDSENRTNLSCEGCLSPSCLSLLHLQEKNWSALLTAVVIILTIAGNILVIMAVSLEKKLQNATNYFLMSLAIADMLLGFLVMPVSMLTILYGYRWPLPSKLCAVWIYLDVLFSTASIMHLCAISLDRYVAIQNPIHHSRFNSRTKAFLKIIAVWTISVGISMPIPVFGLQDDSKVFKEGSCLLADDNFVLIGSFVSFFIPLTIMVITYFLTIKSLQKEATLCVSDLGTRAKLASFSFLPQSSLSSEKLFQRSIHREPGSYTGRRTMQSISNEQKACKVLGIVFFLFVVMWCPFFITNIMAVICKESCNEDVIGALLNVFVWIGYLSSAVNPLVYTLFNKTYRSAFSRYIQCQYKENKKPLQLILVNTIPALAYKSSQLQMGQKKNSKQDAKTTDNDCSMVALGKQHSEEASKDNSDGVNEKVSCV

[21] = molecular target: T4, Alpha-2A adrenergic receptor (Homo sapiens) (UniProt P08913); test: Agonist activity at ADRA2A (unknown origin) transfected in HTLA cells assessed as beta-arrestin 2 recruitment at 10 uM incubated for 18 to 20 hrs by luciferin based Tango assay; assay type: functional, cell-based; conditions: time 18-20 hrs
T4 sequence (whole entry): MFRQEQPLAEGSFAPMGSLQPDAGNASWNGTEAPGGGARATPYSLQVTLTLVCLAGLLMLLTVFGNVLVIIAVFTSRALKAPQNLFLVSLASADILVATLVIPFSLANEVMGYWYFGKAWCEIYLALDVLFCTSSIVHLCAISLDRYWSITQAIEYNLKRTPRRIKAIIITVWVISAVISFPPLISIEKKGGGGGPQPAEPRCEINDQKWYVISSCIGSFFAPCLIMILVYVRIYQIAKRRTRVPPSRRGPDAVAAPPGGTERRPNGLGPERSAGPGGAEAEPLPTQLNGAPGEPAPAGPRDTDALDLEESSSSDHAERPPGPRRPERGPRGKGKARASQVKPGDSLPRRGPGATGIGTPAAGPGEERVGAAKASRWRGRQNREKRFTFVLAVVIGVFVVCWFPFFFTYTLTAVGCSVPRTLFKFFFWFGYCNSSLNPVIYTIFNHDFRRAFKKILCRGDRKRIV

[22] = molecular target: T5, 5-hydroxytryptamine receptor 3A (Homo sapiens) (UniProt P46098); test: (§3) Binding affinity to 5-HT3 (unknown origin) assessed as inhibition constant
T5 sequence (whole entry): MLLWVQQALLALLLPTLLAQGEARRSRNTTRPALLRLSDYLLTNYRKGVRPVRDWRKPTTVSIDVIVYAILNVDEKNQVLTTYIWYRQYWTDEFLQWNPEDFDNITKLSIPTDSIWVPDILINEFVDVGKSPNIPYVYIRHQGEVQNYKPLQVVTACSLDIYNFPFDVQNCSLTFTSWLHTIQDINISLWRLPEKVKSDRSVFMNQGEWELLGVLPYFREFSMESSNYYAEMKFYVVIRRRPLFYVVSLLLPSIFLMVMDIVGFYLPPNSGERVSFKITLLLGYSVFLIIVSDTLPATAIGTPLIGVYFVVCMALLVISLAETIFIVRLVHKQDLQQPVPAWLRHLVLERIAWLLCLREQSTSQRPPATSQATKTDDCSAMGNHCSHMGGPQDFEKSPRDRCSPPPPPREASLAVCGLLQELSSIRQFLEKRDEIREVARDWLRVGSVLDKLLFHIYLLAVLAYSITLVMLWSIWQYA

[23] = molecular target: T6, 5-hydroxytryptamine receptor 1A (Homo sapiens, UniProt P08908); test: as §1
T6 sequence (P08908 whole entry): T3 sequence (whole entry)

[24] = molecular target: T7, 5-hydroxytryptamine receptor 2C (Homo sapiens, UniProt P28335); test: as §2
T7 sequence (P28335 whole entry): T2 sequence (whole entry)

[25] = molecular target: T1, 5-hydroxytryptamine receptor 5A; test: Antagonist activity at human 5-HT5AR assessed as inhibition of beta-arrestin 2 recruitment by measuring reduction in RLuc8-based luminescence incubated for 20 to 30 mins in absence of agonist by luminescence based analysis; assay type: functional; conditions: filed as antagonist, time 20-30 min
HEK-293T = test: Cytotoxicity against HEK293T cells assessed as reduction in cell viability at high concentration incubated for overnight; assay type: toxicity, cell-based; conditions: human
[26] = molecular target: T8, 5-hydroxytryptamine receptor 3A (Homo sapiens, UniProt P46098); test: as §3
T8 sequence (P46098 whole entry): T5 sequence (whole entry)

[27] = molecular target: Atypical chemokine receptor 3 (Homo sapiens) (UniProt P25106); test: Agonist activity at CXCR7 (unknown origin) transfected in HTLA cells assessed as beta-arrestin 2 recruitment at 10 uM incubated for 18 to 20 hrs by luciferin based Tango assay; assay type: functional, cell-based; conditions: time 18-20 hrs
Atypical chemokine receptor 3 (Homo sapiens), sequence (P25106 whole entry): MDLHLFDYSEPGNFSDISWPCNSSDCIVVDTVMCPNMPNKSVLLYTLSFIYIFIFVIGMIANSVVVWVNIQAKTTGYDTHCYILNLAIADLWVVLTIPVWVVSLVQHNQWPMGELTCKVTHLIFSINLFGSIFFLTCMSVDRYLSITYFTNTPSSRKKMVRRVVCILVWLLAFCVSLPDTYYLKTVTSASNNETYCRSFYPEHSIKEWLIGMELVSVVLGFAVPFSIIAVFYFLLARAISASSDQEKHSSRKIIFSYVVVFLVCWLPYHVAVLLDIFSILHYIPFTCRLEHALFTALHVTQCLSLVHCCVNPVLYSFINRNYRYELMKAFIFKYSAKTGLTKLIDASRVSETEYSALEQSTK

SMILES: CS(=O)(=O)C1(CNCc2ccc(Cl)c3cccnc23)CC1
- EC50 [1]: 3.63 µM
- Emax [2]: 10.5%
- Activity (Mus musculus [3]): inactive

SMILES: CN(C)S(=O)(=O)CCNCc1ccc(F)c2cccnc12
- Ki [4]: 0.271 µM

SMILES: CS(=O)(=O)C1(CNCc2cccc3cccnc23)CC1
- EC50 [1]: 0.355 µM
- Activity [5]: inactive
- Activity (Mus musculus [6]): inactive
- Activity [7]: Active
- Activity [8]: Active
- Activity (Mus musculus [9]): Non-Toxic
- Activity [10]: inactive
- Emax [2]: 18.3%
- fold change (FC) (Homo sapiens): 25
- Activity (Mus musculus [3]): Active
- Activity [11]: inactive

SMILES: CC(C)(C)c1ccc2c(c1)CN(C[C@@H](O)COC1CCOCC1)CC2
- Ki [12]: 21.4 µM
- Activity [13]: Active

SMILES: O=S1(=O)CC[C@@H](CNCc2cccc3cccnc23)C1
- Ki [14]: 0.57 µM

SMILES: Clc1ccc(CNC[C@H]2CCn3ccnc3C2)c2ncccc12
- Ki [15]: 1.5 µM

SMILES: O=C(CCCNCc1ccc(Cl)c2cccnc12)NC1CC1
- Ki [12]: 11.5 µM
- Activity [13]: Active

SMILES: O=C1C[C@H](CNCc2ccc(Cl)c3cccnc23)CN1C1CC1
- Ki [15]: 6.7 µM

SMILES: CS(=O)(=O)CCCNCc1ccc(Cl)c2cccnc12
- Activity (Mus musculus [6]): inactive
- Activity (Mus musculus [9]): Non-Toxic
- Activity (Mus musculus [3]): Active

SMILES: CN1CC[C@H](CNCc2ccc(Cl)c3cccnc23)CC1=O
- Ki [15]: 4 µM

SMILES: Clc1ccc(CNCCc2cccnc2)c2ncccc12
- Ki [14]: 2.4 µM

SMILES: Clc1ccc(CNCC[C@@H]2CCOC2)c2ncccc12
- Ki [15]: 6.7 µM

SMILES: Cc1cnc(NCc2ccccc2-n2ccnc2)nc1N(C)C
- Ki [12]: 12.9 µM
- Activity [13]: Active

SMILES: CN(C)S(=O)(=O)C1(CNCc2ccc(Cl)c3cccnc23)CC1
- fold change (FC) (Homo sapiens): 3.9
- Ki [4]: 0.107 µM

SMILES: Cc1cnn(C[C@H](C)NCc2cccc(OCc3ccccn3)c2)c1
- Ki [12]: 20.9 µM
- Activity [13]: Active

SMILES: CN(C)S(=O)(=O)CCNCc1ccc(Cl)c2cccnc12
- Ki [14]: 0.208 µM

SMILES: CN(C)S(=O)(=O)CCNCc1cccc2ncccc12
- Activity [5]: inactive
- Activity [16]: inactive
- Activity [10]: inactive
- Activity [17]: inactive
- Activity [18]: inactive
- Activity [19]: inactive
- Activity [20]: inactive
- Activity [21]: inactive
- Activity (Mus musculus [3]): inactive
- Activity [22]: inactive

SMILES: N#CC1(c2ccccc2)CCC(NCCc2nnc3ccccn23)CC1 (stereo not drawn)
- Ki [12]: 28.8 µM
- Activity [13]: Active

SMILES: CN(C)CCN(Cc1ccc(-c2ccc(CNCCc3ccccc3)cc2)cc1)C(=O)CCC1CCCC1
- Ki [5]: < 2 µM
- Ki [16]: < 2 µM
- Ki [23]: < 2 µM
- Activity [13]: Active
- Ki [18]: < 2 µM
- Ki [24]: < 2 µM
- Ki [20]: < 2 µM
- Activity [25]: Dose-Dependent Effect
- Activity (HEK-293T): Non-Toxic
- Ki [26]: < 2 µM

SMILES: CCS(=O)(=O)CCCNCc1ccc(Cl)c2cccnc12
- Activity [5]: inactive
- Activity (Mus musculus [6]): inactive
- Activity (Mus musculus [9]): Non-Toxic
- Activity [10]: inactive
- Activity (Mus musculus [3]): Active
- Ki [4]: > 10 µM
- Activity [27]: inactive
- Activity [11]: inactive

SMILES: O=S1(=O)CCC[C@@H](CNCc2cccc3cccnc23)C1
- Ki [14]: 0.705 µM

SMILES: CN(C)S(=O)(=O)CCNCc1cccc2cccnc12
- Ki [4]: 0.229 µM

SMILES: O=S1(=O)CCC[C@@H](CNCc2ccc(Cl)c3cccnc23)C1
- Ki [15]: 3.1 µM
